We go through eleven compounds from ChEMBL document CHEMBL1129948, “Synthesis and anti-trypanosomal activity of various 8-aza-7-deaza-5'noraristeromycin derivatives” (J Med Chem, 1997).

One test relates to HeLa. Nature of the test: Cytotoxic activity of compound against HeLa cell line; No toxicity. Particulars: Homo sapiens. It is filed as functional, cell-based.
In test [1] the test system is Trypanosoma brucei. Nature of the test: (§1) Inhibition of growth of Trypanosoma uM). The format is functional, organism-based.
The subject of test [2] is Trypanosoma brucei. Described as §1. The format is functional, organism-based. This is another data set of the same source.
A further test has as its system Vero. Briefly: Cytotoxic activity of compound against Vero cell line; No toxicity. The format is functional, cell-based. Particulars: Chlorocebus sabaeus.
For a further test, the system named is E6SM. Nature of the test: Cytotoxic activity of compound against E6SM cell line; No toxicity. Particulars: Homo sapiens. It is filed as functional, cell-based.
In the next test the test system is HEL. Nature of the test: Cytotoxic activity of compound against HEL cell line; No toxicity. The format is functional, cell-based. Conditions: Homo sapiens.
Test [3] concerns Trypanosoma brucei. Described as §1. The format is functional, organism-based. The source holds these as a separate data set.
The test system of test [4] is Trypanosoma brucei. Described as §1. It is filed as functional, organism-based. The source holds these as a separate data set.
Test [5] concerns Trypanosoma brucei. Nature of the test: (§2) Inhibition of growth of Trypanosoma uM concentration. The format is functional, organism-based.
Test [6] deals with Trypanosoma brucei. Described as §2. It is filed as functional, organism-based. The source holds these as a separate data set.
For test [7], the system named is Trypanosoma brucei. The description is as §2. The format is functional, organism-based. This is another data set of the same source.
Test [8] has as its system Trypanosoma brucei. Described as §2. It is filed as functional, organism-based. The source holds these as a separate data set.
Test [9] concerns Trypanosoma brucei. The test is described as §2. It is filed as functional.
Test [10] deals with Trypanosoma brucei. Described as §2. The format is functional. This is another data set of the same source.

One may read the IC50 as the midpoint of a concentration-inhibition curve. The low end stands for higher potency, the high end for lower potency. One may read the Inhibition as the relative decrease from the control value, in per cent. A lower Inhibition goes with a response near the control.

Active and inactive are the calls of the source. The rule behind the calls is not given here.

For `Nc1ncnc2c1cnn2[C@@H]1C[C@H](O)[C@@H](O)[C@H]1O`, the Cytotoxic activity entry in the test on HeLa, with Vero, with E6SM and in the test with HEL was “No toxicity” each time. For the same compound, the IC50 in the test on Trypanosoma brucei [1] and in the test on Trypanosoma brucei [2] was more than 100 µM in each case.

`Nc1ncnc2c1cnn2[C@H]1C=C[C@@H](O)C1`: the IC50 in the test on Trypanosoma brucei [3], in the test on Trypanosoma brucei [1], in the test on Trypanosoma brucei [2] and with Trypanosoma brucei [4] was more than 100 µM throughout. The Cytotoxic activity result in the test with HeLa, in the test with Vero, in the test with E6SM and with HEL was “No toxicity” in each case.

For `Nc1ncnc2c1cnn2[C@H]1C[C@@H](O)[C@H](O)[C@@H]1O`, the Cytotoxic activity entry with HeLa, with Vero, in the test with E6SM and in the test with HEL was “No toxicity” in each case. The half-maximal inhibitory concentration (IC50) was determined as 67 µM in the test on Trypanosoma brucei [5], 44 µM with Trypanosoma brucei [6], 53 µM in the test on Trypanosoma brucei [7] and 72 µM in the test with Trypanosoma brucei [8].

For `Nc1ncnc2c1cnn2[C@@H]1C=C[C@H](O)C1`, the Cytotoxic activity result with HeLa, in the test on Vero, in the test on E6SM and in the test with HEL was “No toxicity” throughout. Moreover, the IC50 in the test on Trypanosoma brucei [1] and with Trypanosoma brucei [2] was more than 100 µM each time.

Regarding `C[C@H]1C[C@@H](n2ncc3c(N)ncnc32)[C@H](O)[C@@H]1O`, the Cytotoxic activity entry in the test on HeLa, in the test with Vero, with E6SM and in the test on HEL was “No toxicity” each time. The half-inhibitory concentration (IC50) with Trypanosoma brucei [5] came to 14 µM; in the test with Trypanosoma brucei [6] it was 16.8 µM; with Trypanosoma brucei [7], 12.2 µM.

In the case of `Nc1ncnc2c1cnn2[C@@H]1C=C[C@@H](O)[C@H]1O`, the half-inhibitory concentration (IC50) in the test with Trypanosoma brucei [3], in the test on Trypanosoma brucei [1], in the test with Trypanosoma brucei [2] and with Trypanosoma brucei [4] was more than 100 µM in each case. The Cytotoxic activity result in the test with HeLa, in the test on Vero, with E6SM and with HEL was “No toxicity” in each case.

On to `Nc1ncnc2c1cnn2[C@H]1CC[C@H](O)[C@@H]1O`, for which the Cytotoxic activity entry in the test on HeLa, in the test with Vero, in the test on E6SM and with HEL was “No toxicity” throughout. The Inhibition worked out at 37% in the test on Trypanosoma brucei [9] and 23% with Trypanosoma brucei [10].

For the compound `C[C@@H]1C[C@H](n2ncc3c(N)ncnc32)[C@@H](O)[C@H]1O`, the IC50 in the test with Trypanosoma brucei [3], in the test on Trypanosoma brucei [1], in the test on Trypanosoma brucei [2] and with Trypanosoma brucei [4] was more than 100 µM in each case. Also, the Cytotoxic activity result in the test on HeLa, in the test with Vero, with E6SM and with HEL was “No toxicity” each time.

On to `Nc1ncnc2c1cnn2[C@@H]1CC[C@@H](O)[C@H]1O`, for which the half-inhibitory concentration (IC50) in the test on Trypanosoma brucei [3], in the test on Trypanosoma brucei [1], in the test on Trypanosoma brucei [2] and in the test on Trypanosoma brucei [4] was more than 100 µM in each case. Also, the Cytotoxic activity entry in the test with HeLa, in the test with Vero, with E6SM and in the test on HEL was “No toxicity” in each case.

Consider `Nc1ncnc2c1cnn2[C@H]1C=C[C@H](O)[C@@H]1O`, for which the Cytotoxic activity result in the test on HeLa, in the test on Vero, with E6SM and in the test on HEL was “No toxicity” in each case. In addition, the IC50 with Trypanosoma brucei [6] and with Trypanosoma brucei [7] was more than 100 µM throughout.

In the case of `Nc1ncnc2c1ccn2[C@H]1C[C@@H](O)[C@H](O)[C@@H]1O`, in the test with HeLa, the Cytotoxic activity result was “Non-toxic”. Moreover, the IC50 came to 1.55 µM with Trypanosoma brucei [5], 0.85 µM with Trypanosoma brucei [7] and 5.3 µM with Trypanosoma brucei [8]. In addition, the Cytotoxic activity entry with Vero, in the test with E6SM and with HEL was “inactive” in each case.
